Data set [1] concerns the target T1, Glucagon-like peptide 2 receptor (Homo sapiens, UniProt O95838).
T1 sequence (O95838 whole entry): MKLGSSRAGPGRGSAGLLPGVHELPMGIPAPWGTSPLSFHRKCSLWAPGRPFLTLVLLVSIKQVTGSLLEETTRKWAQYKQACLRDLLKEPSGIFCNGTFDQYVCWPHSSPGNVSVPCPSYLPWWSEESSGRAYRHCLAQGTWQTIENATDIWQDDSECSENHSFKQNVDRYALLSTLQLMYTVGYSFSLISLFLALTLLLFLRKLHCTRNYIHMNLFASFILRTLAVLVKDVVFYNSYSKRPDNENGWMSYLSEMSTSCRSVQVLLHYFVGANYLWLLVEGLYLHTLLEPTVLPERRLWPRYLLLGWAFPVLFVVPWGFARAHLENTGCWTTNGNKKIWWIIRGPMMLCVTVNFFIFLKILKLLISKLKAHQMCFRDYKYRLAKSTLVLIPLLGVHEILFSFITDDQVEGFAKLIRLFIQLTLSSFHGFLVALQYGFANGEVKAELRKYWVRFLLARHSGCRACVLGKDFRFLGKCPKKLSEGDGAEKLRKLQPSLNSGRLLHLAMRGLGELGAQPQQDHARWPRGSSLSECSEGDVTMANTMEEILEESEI
The experiment in a line: Agonist activity at human GLP2R expressed in HEK293 cells after 5 hrs by luciferase reporter gene assay. The format is cell-based. On the technique in general: A reporter such as luciferase makes a cellular process visible.

Data set [2] deals with Glucagon receptor (Homo sapiens) (UniProt P47871). Briefly: Agonist activity at human GCGR expressed in HEK293 cells up to 1000 nM after 5 hrs by luciferase reporter gene assay. Format: cell-based.
In data set [3] the target is T2, Glucagon-like peptide 1 receptor (Homo sapiens, UniProt P43220). Briefly: Agonist activity at human GLP1R expressed in HEK293 cells after 5 hrs by luciferase reporter gene assay. The format is cell-based.
A short description of data set [4]: Systemic clearance in Sprague-Dawley rat at 0.2 mg/kg, iv through cassette dosing measured up to 300 mins by LC/MS/MS analysis. The note with it: in vivo. Format: ADME, organism-based.
For data set [5], the system named is HEK293. Briefly: Selectivity ratio of EC50 for human GLP1R expressed in HEK293 cells to EC50 for human GLP2R expressed in HEK293. Format: cell-based.
The target in data set [6] is T2, Glucagon-like peptide 1 receptor. Briefly: Agonist activity at human GLP1R expressed in HEK293 cells at 30 nM after 5 hrs by luciferase reporter gene assay. Format: cell-based.
The target of data set [7] is Glucagon receptor (Homo sapiens) (UniProt P47871). Briefly: Agonist activity at human GCGR expressed in HEK293 cells after 5 hrs by luciferase reporter gene assay. The format is cell-based.

Active and inactive are the calls of the source. No cut-off for these calls is given here. Non-standard residues stand in square brackets, D forms with d. Residues, ends and D or L forms follow the SMILES beside them. ξ: configuration not given here. ξNle = CCCCC(N)C(=O)O

A word on the EC50: it is the concentration needed to bring the measured effect to its halfway point. The low end stands for an effect from little substance, the high end for a need for much substance. For orientation: clearance means a measure of how efficiently the substance is removed, as volume per time. High values mean a high capacity for elimination, low ones a low capacity for elimination.

T2 sequence (P43220 whole entry): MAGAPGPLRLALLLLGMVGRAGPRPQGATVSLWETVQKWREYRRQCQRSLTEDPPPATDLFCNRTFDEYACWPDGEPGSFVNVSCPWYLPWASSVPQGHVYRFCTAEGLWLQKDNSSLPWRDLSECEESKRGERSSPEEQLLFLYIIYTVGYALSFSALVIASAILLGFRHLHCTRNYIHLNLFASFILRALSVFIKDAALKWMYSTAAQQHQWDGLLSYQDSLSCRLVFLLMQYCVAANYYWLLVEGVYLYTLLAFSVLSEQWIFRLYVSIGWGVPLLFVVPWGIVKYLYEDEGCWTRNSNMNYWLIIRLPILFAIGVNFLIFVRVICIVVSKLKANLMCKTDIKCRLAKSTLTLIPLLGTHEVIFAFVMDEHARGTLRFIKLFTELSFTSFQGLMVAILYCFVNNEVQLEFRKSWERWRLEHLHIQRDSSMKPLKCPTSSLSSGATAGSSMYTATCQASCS
Chain of Glucagon receptor (Homo sapiens) (P47871 whole entry): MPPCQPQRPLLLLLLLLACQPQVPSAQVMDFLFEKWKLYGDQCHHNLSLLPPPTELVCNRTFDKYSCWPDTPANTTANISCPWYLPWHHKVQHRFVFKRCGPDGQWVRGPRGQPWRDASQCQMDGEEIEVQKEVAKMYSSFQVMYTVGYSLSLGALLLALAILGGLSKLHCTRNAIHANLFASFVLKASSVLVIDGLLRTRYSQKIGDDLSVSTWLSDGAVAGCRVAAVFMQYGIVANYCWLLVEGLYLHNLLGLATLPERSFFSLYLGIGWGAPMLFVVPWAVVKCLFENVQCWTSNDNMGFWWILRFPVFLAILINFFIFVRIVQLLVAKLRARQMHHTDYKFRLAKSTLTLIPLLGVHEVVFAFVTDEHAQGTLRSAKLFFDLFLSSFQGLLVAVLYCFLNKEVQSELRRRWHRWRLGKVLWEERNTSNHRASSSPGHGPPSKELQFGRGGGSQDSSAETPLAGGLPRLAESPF

Turning to `CCCCC(NC(=O)[C@H](CCC(=O)O)NC(=O)[C@H](CC(=O)O)NC(=O)[C@H](CO)NC(=O)[C@H](Cc1ccccc1)NC(=O)[C@H](CO)NC(=O)CNC(=O)[C@H](CC(=O)O)NC(=O)CNC(=O)[C@@H](N)Cc1cnc[nH]1)C(=O)N[C@@H](CC(N)=O)C(=O)N[C@H](C(=O)N[C@H](C(=O)N[C@@H](CC(C)C)C(=O)N[C@@H](CC(=O)O)C(=O)N[C@@H](Cc1ccccc1)C(=O)N[C@@H](CC(C)C)C(=O)N[C@@H](C)C(=O)N[C@@H](C)C(=O)N[C@@H](CCCNC(=N)N)C(=O)N[C@@H](CC(=O)O)C(=O)N[C@@H](Cc1ccccc1)C(=O)N[C@H](C(=O)N[C@@H](CC(N)=O)C(=O)N[C@@H](Cc1c[nH]c2ccccc12)C(=O)N[C@@H](CC(C)C)C(=O)N[C@H](C(=O)N[C@@H](CCC(N)=O)C(=O)N[C@H](C(=O)N[C@@H](CCCCN)C(N)=O)[C@@H](C)O)[C@@H](C)CC)[C@@H](C)CC)[C@@H](C)CC)[C@@H](C)O` (stereo partly drawn) (H-HGDGSFSDE[ξNle]NTILDFLAARDFINWLIQTK-NH2), the EC50 in data set [1] was 0.14 nM; in data set [3], greater than 1000 nM. Also, the result in data set [2] was inactive. In data set [4], the clearance amounted to 0.354 L/h/kg. For the same molecule, in data set [5], the Ratio EC50 was greater than 7100.
In the case of `CCCCC(NC(=O)[C@@H](CCC(=O)O)NC(=O)[C@@H](CC(=O)O)NC(=O)[C@@H](CO)NC(=O)[C@@H](Cc1ccccc1)NC(=O)[C@@H](CO)NC(=O)CNC(=O)[C@@H](CC(=O)O)NC(=O)CNC(=O)[C@@H](N)Cc1cnc[nH]1)C(=O)N[C@H](CC(N)=O)C(=O)N[C@@H](C(=O)N[C@@H](C(=O)N[C@H](CC(C)C)C(=O)N[C@H](CC(=O)O)C(=O)NC(Cc1ccc2ccccc2c1)C(=O)N[C@@H](CC(C)C)C(=O)N[C@@H](C)C(=O)N[C@@H](C)C(=O)N[C@@H](CCCNC(=N)N)C(=O)N[C@@H](CC(=O)O)C(=O)N[C@@H](Cc1ccccc1)C(=O)N[C@H](C(=O)N[C@@H](CC(N)=O)C(=O)N[C@H](Cc1c[nH]c2ccccc12)C(=O)N[C@H](CC(C)C)C(=O)N[C@@H](C(=O)N[C@H](CCC(N)=O)C(=O)N[C@@H](C(=O)N[C@@H](CCCCN)C(N)=O)[C@H](C)O)[C@@H](C)CC)[C@H](C)CC)[C@@H](C)CC)[C@H](C)O` (stereo partly drawn), in data set [2], the outcome was inactive. Moreover, the Ratio EC50 in data set [5] is greater than 7600.
`CCCCC(NC(=O)[C@H](CCC(=O)O)NC(=O)[C@H](CC(=O)O)NC(=O)[C@H](CO)NC(=O)[C@H](Cc1ccccc1)NC(=O)[C@H](CO)NC(=O)CNC(=O)[C@H](CC(=O)O)NC(=O)CNC(=O)[C@H](N)Cc1cnc[nH]1)C(=O)N[C@@H](CC(N)=O)C(=O)N[C@H](C(=O)N[C@H](C(=O)N[C@@H](CC(C)C)C(=O)N[C@@H](CC(=O)O)C(=O)NC(Cc1ccc(Cl)cc1)C(=O)N[C@H](CC(C)C)C(=O)N[C@H](C)C(=O)N[C@H](C)C(=O)N[C@H](CCCNC(=N)N)C(=O)N[C@H](CC(=O)O)C(=O)N[C@H](Cc1ccccc1)C(=O)N[C@@H](C(=O)N[C@H](CC(N)=O)C(=O)N[C@@H](Cc1c[nH]c2ccccc12)C(=O)N[C@@H](CC(C)C)C(=O)N[C@H](C(=O)N[C@@H](CCC(N)=O)C(=O)N[C@H](C(=O)N[C@H](CCCCN)C(N)=O)[C@@H](C)O)[C@H](C)CC)[C@@H](C)CC)[C@H](C)CC)[C@@H](C)O` (stereo partly drawn): the result in data set [2] was inactive. For the same molecule, in data set [5], the Ratio EC50 was greater than 4500.
For `CCCCC(NC(=O)[C@H](CCC(=O)O)NC(=O)[C@H](CC(=O)O)NC(=O)[C@H](CO)NC(=O)[C@H](Cc1ccccc1)NC(=O)[C@H](CO)NC(=O)CNC(=O)[C@H](CC(=O)O)NC(=O)CNC(=O)[C@H](N)Cc1cnc[nH]1)C(=O)N[C@@H](CC(N)=O)C(=O)N[C@H](C(=O)N[C@H](C(=O)N[C@@H](CC(C)C)C(=O)N[C@@H](CC(=O)O)C(=O)NC(Cc1ccc(-c2ccccc2)cc1)C(=O)N[C@H](CC(C)C)C(=O)N[C@H](C)C(=O)N[C@H](C)C(=O)N[C@H](CCCNC(=N)N)C(=O)N[C@H](CC(=O)O)C(=O)N[C@H](Cc1ccccc1)C(=O)N[C@@H](C(=O)N[C@H](CC(N)=O)C(=O)N[C@@H](Cc1c[nH]c2ccccc12)C(=O)N[C@@H](CC(C)C)C(=O)N[C@H](C(=O)N[C@@H](CCC(N)=O)C(=O)N[C@H](C(=O)N[C@H](CCCCN)C(N)=O)[C@@H](C)O)[C@H](C)CC)[C@@H](C)CC)[C@H](C)CC)[C@@H](C)O` (stereo partly drawn), in that order: “inactive” and greater than 2800.
The matching figures for `CCCCC(NC(=O)[C@H](CCC(=O)O)NC(=O)[C@H](CC(=O)O)NC(=O)[C@H](CO)NC(=O)[C@H](Cc1ccccc1)NC(=O)[C@H](CO)NC(=O)CNC(=O)[C@H](CC(=O)O)NC(=O)CNC(=O)[C@H](N)Cc1cnc[nH]1)C(=O)N[C@@H](CC(N)=O)C(=O)N[C@H](C(=O)N[C@H](C(=O)N[C@@H](CC(C)C)C(=O)N[C@@H](CC(=O)O)C(=O)NC(CC1CCCCC1)C(=O)N[C@H](CC(C)C)C(=O)N[C@H](C)C(=O)N[C@H](C)C(=O)N[C@H](CCCNC(=N)N)C(=O)N[C@H](CC(=O)O)C(=O)N[C@H](Cc1ccccc1)C(=O)N[C@@H](C(=O)N[C@H](CC(N)=O)C(=O)N[C@@H](Cc1c[nH]c2ccccc12)C(=O)N[C@@H](CC(C)C)C(=O)N[C@H](C(=O)N[C@@H](CCC(N)=O)C(=O)N[C@H](C(=O)N[C@H](CCCCN)C(N)=O)[C@@H](C)O)[C@H](C)CC)[C@@H](C)CC)[C@H](C)CC)[C@@H](C)O` (stereo partly drawn): “inactive” and greater than 10000.
For `CCCCC(NC(=O)[C@H](CCC(=O)O)NC(=O)[C@H](CC(=O)O)NC(=O)[C@H](CO)NC(=O)[C@H](Cc1ccccc1)NC(=O)[C@H](CO)NC(=O)CNC(=O)[C@H](CC(=O)O)NC(=O)CNC(=O)[C@H](N)Cc1cnc[nH]1)C(=O)N[C@@H](CC(N)=O)C(=O)N[C@H](C(=O)N[C@H](C(=O)N[C@@H](CC(C)C)C(=O)N[C@@H](CC(=O)O)C(=O)NC(Cc1ccc(N)cc1)C(=O)N[C@H](CC(C)C)C(=O)N[C@H](C)C(=O)N[C@H](C)C(=O)N[C@H](CCCNC(=N)N)C(=O)N[C@H](CC(=O)O)C(=O)N[C@H](Cc1ccccc1)C(=O)N[C@@H](C(=O)N[C@H](CC(N)=O)C(=O)N[C@@H](Cc1c[nH]c2ccccc12)C(=O)N[C@@H](CC(C)C)C(=O)N[C@H](C(=O)N[C@@H](CCC(N)=O)C(=O)N[C@H](C(=O)N[C@H](CCCCN)C(N)=O)[C@@H](C)O)[C@H](C)CC)[C@@H](C)CC)[C@H](C)CC)[C@@H](C)O` (stereo partly drawn), in that order: “inactive” and greater than 7600.
For `CCCCC(NC(=O)[C@@H](CCC(=O)O)NC(=O)[C@@H](CC(=O)O)NC(=O)[C@@H](CO)NC(=O)[C@@H](Cc1ccccc1)NC(=O)[C@@H](CO)NC(=O)CNC(=O)[C@@H](CC(=O)O)NC(=O)CNC(=O)[C@@H](N)Cc1cnc[nH]1)C(=O)N[C@H](CC(N)=O)C(=O)N[C@@H](C(=O)N[C@@H](C(=O)N[C@H](CC(C)C)C(=O)N[C@H](CC(=O)O)C(=O)NC(Cc1cccc2ccccc12)C(=O)N[C@@H](CC(C)C)C(=O)N[C@@H](C)C(=O)N[C@@H](C)C(=O)N[C@@H](CCCNC(=N)N)C(=O)N[C@@H](CC(=O)O)C(=O)N[C@@H](Cc1ccccc1)C(=O)N[C@H](C(=O)N[C@@H](CC(N)=O)C(=O)N[C@H](Cc1c[nH]c2ccccc12)C(=O)N[C@H](CC(C)C)C(=O)N[C@@H](C(=O)N[C@H](CCC(N)=O)C(=O)N[C@@H](C(=O)N[C@@H](CCCCN)C(N)=O)[C@H](C)O)[C@@H](C)CC)[C@H](C)CC)[C@@H](C)CC)[C@H](C)O` (stereo partly drawn), in data set [2], the outcome was inactive. For the same molecule, the Ratio EC50 in data set [5] is greater than 5200.
Take `CCCCC(NC(=O)[C@H](CCC(=O)O)NC(=O)[C@H](CC(=O)O)NC(=O)[C@H](CO)NC(=O)[C@H](Cc1ccccc1)NC(=O)[C@H](CO)NC(=O)CNC(=O)[C@H](CC(=O)O)NC(=O)CNC(=O)[C@@H](N)Cc1cnc[nH]1)C(=O)N[C@H](Cc1cccc(Cl)c1)C(=O)N[C@H](C(=O)N[C@H](C(=O)N[C@@H](CC(C)C)C(=O)N[C@@H](CC(=O)O)C(=O)N[C@@H](CC(N)=O)C(=O)N[C@@H](CC(C)C)C(=O)N[C@@H](C)C(=O)N[C@@H](C)C(=O)N[C@@H](CCCNC(=N)N)C(=O)N[C@@H](CC(=O)O)C(=O)N[C@@H](Cc1ccccc1)C(=O)N[C@H](C(=O)N[C@@H](CC(N)=O)C(=O)N[C@@H](Cc1c[nH]c2ccccc12)C(=O)N[C@@H](CC(C)C)C(=O)N[C@H](C(=O)N[C@@H](CCC(N)=O)C(=O)N[C@H](C(=O)N[C@@H](CCCCN)C(N)=O)[C@@H](C)O)[C@@H](C)CC)[C@@H](C)CC)[C@@H](C)CC)[C@@H](C)O` (stereo partly drawn): the Efficacy in data set [6] came out at 73%. The result in data set [7] was inactive. Besides, the EC50 in data set [1] amounted to 0.11 nM; in data set [3] it was 45 nM. This molecule also registered a clearance in data set [4] of 0.0192 L/h/kg. Besides, in data set [5], the Ratio EC50 worked out at 400.

For the origin of these results see ChEMBL document CHEMBL3822442, “Synthesis and Pharmacological Characterization of Novel Glucagon-like Peptide-2 (GLP-2) Analogues with Low Systemic Clearance” (J Med Chem, 2016).
